Measured values published in patent US20250163056A1, “NONMUSCLE MYOSIN II INHIBITORS” (The University of Florida Research Foundation, Inc., priority 2018, published 2025).
In brackets after ≈: the same amount, converted by molar mass. Several values for one entry are separate records, joined by “and”; a condition that tells them apart may be missing. Equal entries are not always repeated. Where two headings read alike, the source gives them in different places.

What was measured:
[1] = Solubility (quoted in the Table 2 note); assay type: physicochemical
Male Sprague-Dawley rats = experiment: Cardiac safety assay 2: in vivo echocardiography with IV drug infusion; set-up: species or system rat
Source text: The first (results shown in Table 2) assesses the effects of our compounds on the contractility of cardiomyocytes. As the cardiac Ki increases, the contractility effects dramatically decrease. However, unlike in the adult heart, the hiPS cardiomyocytes used in this assay express NMII, which likely accounts for the residual contractility effects seen at the highest dose tested. For that reason, we moved to in vivo echocardiograms, which assess contractility in live animals (FIG. 7). […] Accordingly, the compounds of the invention and compounds used for practice of methods of the invention can produce less cardiac toxicity than does blebbistatin.
Male Sprague-Dawley rats are acclimated for approximately 1 week prior to use. Rats are lightly anesthetized using isoflurane and an intravenous catheter is placed for dosing purposes. Baseline 2-D echocardiograms are collected (standard SAX B-mode and M-mode at the level of the papillary muscle). Each rat receives a total of 3 IV treatments. Vehicle (10% DMSO, 10% Tween 80 and 80% water) is first administered, followed 10 minutes later by two subsequent infusions, separated by 10 minutes. Infusions of the positive control, Blebbistatin, are delivered at 0.5 mg/kg IV. […] Measurements including fractional shortening, ejection fraction, heart rate and cardiac output are calculated.

Bovine cardiac myosin = Bovine cardiac myosin (Bos taurus (Bovine), UniProt Q9BE39); experiment: Cardiac muscle myosin II actin-activated ATPase assay (NADH-coupled); assay type: biochemical
Sequence of Bovine cardiac myosin (Q9BE39 whole entry): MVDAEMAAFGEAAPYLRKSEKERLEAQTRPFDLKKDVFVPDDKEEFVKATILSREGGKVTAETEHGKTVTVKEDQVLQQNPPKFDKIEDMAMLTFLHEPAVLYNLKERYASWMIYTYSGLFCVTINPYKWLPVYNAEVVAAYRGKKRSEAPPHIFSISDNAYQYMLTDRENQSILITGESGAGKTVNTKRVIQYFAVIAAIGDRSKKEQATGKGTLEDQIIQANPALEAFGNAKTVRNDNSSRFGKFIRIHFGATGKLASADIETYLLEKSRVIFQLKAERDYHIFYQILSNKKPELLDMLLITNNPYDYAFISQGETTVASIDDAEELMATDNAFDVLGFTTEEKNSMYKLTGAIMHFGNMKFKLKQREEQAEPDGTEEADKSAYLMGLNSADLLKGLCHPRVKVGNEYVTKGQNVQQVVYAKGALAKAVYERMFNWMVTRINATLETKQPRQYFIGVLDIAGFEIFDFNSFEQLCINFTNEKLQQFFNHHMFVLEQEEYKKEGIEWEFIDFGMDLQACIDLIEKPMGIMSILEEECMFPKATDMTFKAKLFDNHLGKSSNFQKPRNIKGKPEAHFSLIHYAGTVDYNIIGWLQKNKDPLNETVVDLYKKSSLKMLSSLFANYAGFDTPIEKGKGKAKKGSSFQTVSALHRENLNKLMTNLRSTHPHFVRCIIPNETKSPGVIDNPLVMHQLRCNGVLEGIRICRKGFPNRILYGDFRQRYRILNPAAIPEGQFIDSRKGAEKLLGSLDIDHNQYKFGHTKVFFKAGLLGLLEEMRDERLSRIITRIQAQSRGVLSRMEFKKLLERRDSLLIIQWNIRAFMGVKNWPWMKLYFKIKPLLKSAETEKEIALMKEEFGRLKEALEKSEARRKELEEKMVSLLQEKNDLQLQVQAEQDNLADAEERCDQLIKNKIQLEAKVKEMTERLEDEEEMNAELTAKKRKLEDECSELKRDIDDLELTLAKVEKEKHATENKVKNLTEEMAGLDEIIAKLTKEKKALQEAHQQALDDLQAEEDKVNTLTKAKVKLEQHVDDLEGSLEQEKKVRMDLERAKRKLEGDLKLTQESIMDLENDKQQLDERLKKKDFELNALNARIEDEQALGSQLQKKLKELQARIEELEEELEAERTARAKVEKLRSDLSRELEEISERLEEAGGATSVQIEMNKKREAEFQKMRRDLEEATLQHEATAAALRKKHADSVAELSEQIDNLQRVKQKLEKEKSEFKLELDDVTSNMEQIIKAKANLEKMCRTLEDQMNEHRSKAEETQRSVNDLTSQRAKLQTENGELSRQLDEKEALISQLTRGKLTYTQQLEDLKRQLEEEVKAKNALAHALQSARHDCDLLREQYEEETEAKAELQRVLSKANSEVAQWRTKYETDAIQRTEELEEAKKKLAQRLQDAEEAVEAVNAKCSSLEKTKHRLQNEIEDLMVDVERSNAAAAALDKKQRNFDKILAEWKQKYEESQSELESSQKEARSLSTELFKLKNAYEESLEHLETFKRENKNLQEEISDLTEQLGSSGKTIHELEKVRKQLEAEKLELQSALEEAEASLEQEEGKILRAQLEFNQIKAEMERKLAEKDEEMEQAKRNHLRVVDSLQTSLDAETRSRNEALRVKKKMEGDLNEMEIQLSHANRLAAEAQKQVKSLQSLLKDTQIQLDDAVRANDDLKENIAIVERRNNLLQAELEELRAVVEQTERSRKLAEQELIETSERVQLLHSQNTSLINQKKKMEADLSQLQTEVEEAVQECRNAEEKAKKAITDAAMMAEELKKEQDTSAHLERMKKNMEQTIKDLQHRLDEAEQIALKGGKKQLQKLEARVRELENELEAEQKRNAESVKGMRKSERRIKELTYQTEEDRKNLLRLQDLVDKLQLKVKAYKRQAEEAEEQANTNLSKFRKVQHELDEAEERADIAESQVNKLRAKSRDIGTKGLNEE
Sequence of Bovine cardiac myosin (P85100 whole entry partner): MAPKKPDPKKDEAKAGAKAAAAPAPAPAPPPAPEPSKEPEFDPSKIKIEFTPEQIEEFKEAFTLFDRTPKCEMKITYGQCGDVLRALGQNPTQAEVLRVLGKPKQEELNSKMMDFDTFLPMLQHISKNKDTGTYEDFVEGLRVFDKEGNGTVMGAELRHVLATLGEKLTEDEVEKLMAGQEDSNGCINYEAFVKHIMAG
Sequence of Bovine cardiac myosin (Q3SZE5 whole entry partner): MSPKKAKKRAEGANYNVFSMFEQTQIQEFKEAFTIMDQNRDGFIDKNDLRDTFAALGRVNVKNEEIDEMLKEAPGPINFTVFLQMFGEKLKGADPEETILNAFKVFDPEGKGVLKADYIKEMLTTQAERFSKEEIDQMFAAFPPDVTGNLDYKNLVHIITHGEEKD
How it was run: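 Inhibitory constants came from a quadratic one-to-one binding fit of 16-point dose-responses (highest final 50 uM, triplicate). Rates were NADH-calibrated fluorescence slopes over 30 min at 25° C, with 300 nM bovine cardiac myosin, 10 μM actin and 1 mM ATP coupled through PK/LDH in pH 7.0 MOPS buffer.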

[2] = test system: polydrug-associated memories; experiment: Polydrug-associated memory CPP (METH/NIC, METH/MOR); assay type: in vivo, mice; conditions: Test 1 and Test 2, drugs on alternating days
Procedure: FIG. 6(A,B,C,D,E): Nonmuscle myosin II inhibition disrupts polydrug-associated memories when the drugs are administered on alternating days (A) Schematic of the experimental design. […] METH/NIC: Veh n=10; METH/NIC: Blebb n=10; METH/MOR: Veh n=19; METH/MOR: Blebb n=19; * p<0.05, ** p<0.01, *** p<0.001. Error bars represent±s.e.m.
The vast majority of individuals with substance use disorder are polydrug users. For example, most METH users also smoke. We recently made an unexpected discovery with direct relevance to polydrug use^76. When animals are treated with both METH and a drug that is impervious to Blebb on its own (nicotine or morphine), either concurrently or on alternating days, the nicotine and morphine memories become susceptible to immediate disruption by Blebb, akin to the effect on METH alone memories (FIG. 6). Thus, memories for previously impervious drugs of abuse become susceptible to NMII inhibition when METH associations are also formed. Importantly, this occurs when associative training is performed with METH and the other drug of abuse being administered simultaneously or separately, on different days. We are currently expanding our analysis to other commonly abused drugs, including other opioids, such as heroin, alcohol, cocaine and synthetic cathinones.

METH seeking = experiment: Context-induced reinstatement of METH seeking (animal model of relapse); assay type: in vivo; conditions: single intra-BLC administration
[3] = Brain and plasma distribution after IP dosing; assay type: in vivo, mice; conditions: 10 mg/kg
Procedure: FIG. 4: Brain and plasma distribution of blebbistatin after IP dosing at 10 mg/kg in mice.
The potential for systemic NMII inhibition to selectively target METH-associated memories in the way that intra-AMY administration does was also investigated. […] IP administered Blebbistatin also disrupts reconsolidation of memories for cocaine, nicotine and mephedrone, a result with additional potential therapeutic relevance in treating relapse^75-76. In addition, the BLC spine density increase that accompanies a METH-associated memory is reversed by Blebbistatin (FIG. 3C), without altering the spine density increase associated with a fear memory (FIG. 3D)^65, 74.

[4] = Photostability, percentage remaining undegraded under illumination or in the dark

solubility [1]: 9.3 µM (≈ 2.72 µg/mL)
Ki (Bovine cardiac myosin; 300 nM cardiac myosin, 10 μM actin, 25° C., read-out: CMMII KI): 1.5 µM
CMMII/NMII Ratio (Bovine cardiac myosin; cardiac Ki relative to NMII EC50): 0.56
Ki (Bovine cardiac myosin; cardiac muscle myosin II, read-out: CMMII Ki): 0.67 µM
Ratio CMMII:NMII Ki/EC50 (Bovine cardiac myosin; cardiac myosin II Ki over nonmuscle myosin II EC50): 0.789 and 0.8
brain levels [3]: 90 µM
Photostability 4 hours ([4]; percentage remaining undegraded after 4 hours illumination): 82.9%
Photostability 24 hours ([4]; percentage remaining undegraded after 24 hours illumination): 9.3%
Photostability Dark (24 h) ([4]; percentage remaining undegraded in the dark, 24 h): >99%
Compound: Cc1ccc2c(c1)C(=O)[C@]1(O)CCN(c3ccccc3)C1=N2 [Blebbistatin, reference compound]
contractility effects in in vivo echocardiograms (Male Sprague-Dawley rats): substantial contractility effects
METH/MOR CPP [2]: did not demonstrate a significant METH/MOR CPP during either test
METH/NIC CPP [2]: did not demonstrate a significant METH/NIC CPP during either test
context-induced reinstatement of METH seeking (METH seeking): prevents context-induced reinstatement of METH seeking
